Assay results published in patent publication US8563472B2 (priority 2010, dated 2013).

Tests used:
[1] = tested on: Leptosphaeria nodorum (LEPTNO); assay: In vitro fungitoxicity assay against Leptosphaeria nodorum in copper-minus / copper-plus liquid medium; format: cell-based; conditions: for inhibition of growth at 0.05 µg/mL: Parastagonospora nodorum, copper-minus medium, growth by light scattering, read-out: LEPTNO % Inhn. Minus Copper Observed; for inhibition of growth at 0.05 µg/mL / LEPTNO % Inhn. Plus Copper Observed: test compound 0.05 μg/mL, 25° C., 72 h; for LEPTNO % Inhn. Plus Copper Observed: copper-plus medium (CuCl2.2H2O)
Experimental: In vitro fungitoxicity assays against Leptosphaeria nodorum (LEPTNO) were conducted using the liquid growth medium described by Coursen and Sisler (American Journal of Botany 1960, 47, 541-549) except that copper micronutrient, normally included as CuSO4, was omitted. The medium, termed “copper-minus”, was prepared by dissolving 10 g glucose, 1.5 g K2HPO4, 2 g KH2PO4 and 1 g (NH4)2SO4 in 1 liter of deionized water and treating the solution with 0.5 g Chelex 100 resin (Bio-Rad Analytical grade, 50-100 mesh, sodium form, cat#142-2822) by stirring at room temperature for 1 h. MgSO4.7H2O (0.5 g) was added, and stirring was continued for a further hour. Trace elements (minus CuSO4), and vitamins described by Coursen and Sisler were added from concentrated stock solutions and the entire medium was sterilized by filtration. Medium containing copper was prepared by adding CuCl2.2H2O to the copper-minus medium at 20 μM. […] Copper-minus medium (100 μL) was added to one of the wells and copper-plus medium to the second well. Control wells, included for each medium, received 1 μL DMSO and 100 μL of medium.
LEPTNO was grown on potato dextrose agar in 9 cm diameter petri dishes for 7 days (d). Sterile deionized water (20 mL) was added to a culture plate and spores suspended by scraping the surface gently with a sterile plastic loop. The resulting suspension was filtered through a double layer of sterile cheesecloth. […] The spores were resuspended in copper-minus medium, and the suspension adjusted to 2×10^5 spores per mL. Microtiter plates were inoculated with 100 μL of this spore suspension and the plates incubated at 25° C. for 72 h before assessing fungal growth by measuring light scattering in a NepheloStar plate reader. Growth inhibition was determined by comparing growth in the presence of test compound with growth in control wells lacking test compound.

Phytophthora infestans = format: in vivo; conditions: hydrazone 50 ppm with 50 μM CuCl2.2H2O, applied 24 h before inoculation, tomato plants, assessed 7 d after inoculation

| SMILES | inhibition of growth at 0.05 µg/mL [1] | LEPTNO % Inhn. Plus Copper Observed [1] | TLB % control (Phytophthora infestans) | melting point | LEPTNO % inhibition attributed to copper chloride alone ([1]; CuCl2 10 μM, no test compound, copper-plus vs copper-minus medium across experiments) |
| --- | --- | --- | --- | --- | --- |
| O=C(N/N=C/c1cc(Cl)cc(Cl)c1O)c1ccco1 [Compound 14] | 0% | 56.2% | 52% |  |  |
| Cc1occc1C(=O)N/N=C/c1cc(Br)cc(Br)c1O [Compound 33] | 9.1% | 97.8% | 66% | 270 to 272 °C |  |
| O=C(N/N=C/c1ccccc1O)c1sc2ccccc2c1Cl [Compound 19] | 0% | 92.1% | 44% |  |  |
| C/C(=N\NC(=O)c1ccoc1C)c1cc(Br)cc(Br)c1O [Compound 52] | 0% | 97.7% | 66% | 201 to 204 °C |  |
| O=C(N/N=C/c1ccccc1O)c1cccs1 [Compound 7] | 0% | 87.3% | 38% |  |  |
| Cc1nc(C)c(C(=O)N/N=C/c2cc(Cl)cc(Cl)c2O)s1 [Compound 25] | 0% | 81.9% | 71% | 217 to 219 °C |  |
| Cc1cc(C(=O)N/N=C/c2ccccc2O)cs1 [Compound 24] | 2.9% | 94.8% | 56% | 180 to 182 °C |  |
| O=C(N/N=C/c1ccccc1O)c1snnc1-c1ccccc1 [Compound 22] | 9.6% | 77.9% | 56% | 191 to 192 °C |  |
| O=C(N/N=C/c1ccccc1)c1cnn(-c2ccc(Cl)cc2)c1C(F)(F)F [Compound 18] | 0% | 92.5% | 7% | 205 to 207 °C |  |
| C/C(=N\NC(=O)c1ccc(Cl)s1)c1cc(Cl)cc(Cl)c1O [Compound 44] | 2% | 96.9% | 68% | 221 to 224 °C |  |
| Cc1occc1C(=O)N/N=C/c1cc(Br)ccc1O [Compound 6] | 2.2% | 96.7% | 75% |  |  |
| Cc1ccc(C(=O)N/N=C/c2cc(Br)cc(Cl)c2O)cn1 [Compound 8] | 0% | 60.9% | 0% |  |  |
| O=C(N/N=C/c1cc(Br)cc(Br)c1O)c1ccsc1 [Compound 34] | 0% | 97.9% | 80% | 236 to 237 °C |  |
| O=C(N/N=C/c1cc(Cl)ccc1O)c1cccs1 [Compound 5] | 0% | 95.8% | 54% |  |  |
| C/C(=N\NC(=O)c1ccsc1)c1cc(Cl)cc(Cl)c1O [Compound 47] | 0% | 98.1% | 81% | 230 to 232 °C |  |
| CCn1nc(C)cc1C(=O)N/N=C/c1cc(Cl)cc(Cl)c1O [Compound 16] | 3.5% | 88% | 39% | 221 to 222 °C |  |
| C/C(=N\NC(=O)c1cn(-c2ccccc2)nc1O)c1ccccc1O [Compound 36] | 9.2% | 92.5% | 66% | 276 to 277 °C |  |
| C/C(=N\NC(=O)c1ccoc1C)c1cc(Cl)cc(Cl)c1O [Compound 46] | 0% | 97.2% | 69% | 212 to 215 °C |  |
| O=C(N/N=C/c1cc(Br)cc(Br)c1O)c1ccc(Cl)s1 [Compound 31] | 4.9% | 97.8% | 88% | 247 to 248 °C |  |
| Cc1nn(-c2ccccc2)nc1C(=O)N/N=C/c1ccccc1O [Compound 21] | 0% | 93.9% | 16% | 231 to 233 °C |  |

| SMILES | inhibition of growth at 0.05 µg/mL [1] | LEPTNO % Inhn. Plus Copper Observed [1] | TLB % control (Phytophthora infestans) | melting point | LEPTNO % inhibition attributed to copper chloride alone ([1]; CuCl2 10 μM, no test compound, copper-plus vs copper-minus medium across experiments) |
| --- | --- | --- | --- | --- | --- |
| C/C(=N\NC(=O)c1ccoc1C)c1ccccc1O [Compound 9] | 3.9% | 97% | 60% |  |  |
| Cc1cc(C(=O)N/N=C/c2cc(Cl)cc(Cl)c2O)cs1 [Compound 27] | 5.4% | 97.3% | 78% | 189 to 191 °C |  |
| C/C(=N\NC(=O)c1csc(C)c1)c1ccccc1O [Compound 39] | 0% | 97.3% | 66% | 158 to 160 °C |  |
| O=C(N/N=C/c1cc(Cl)cc(Cl)c1O)c1ccsc1 [Compound 28] | 4.4% | 97.6% | 80% | 315 to 318 °C |  |
| CN1CCCCC1C(=O)N/N=C/c1cc(Cl)cc(Cl)c1O (stereo not drawn) [Compound 54, 1-methyl-piperidine-2-carboxylic acid [1-(3,5-dichloro-2-hydroxy-phenyl)-methylidene]-hydrazide] | 0% | 91% | 22% | 107 to 110 °C |  |
| Cc1cc(C(=O)N/N=C/c2cc(Br)cc(Br)c2O)cs1 [Compound 32] | 0% | 97.6% | 69% | 203 to 205 °C |  |
| Cc1cc(C(=O)N/N=C/c2ccccc2O)c2cc(Br)ccc2n1 [Compound 3] | 0% | 72.9% | 25% | 270 to 275 °C |  |
| C/C(=N\NC(=O)c1ccsc1)c1cc(Br)cc(Br)c1O [Compound 53] | 7.6% | 97.6% | 73% | 251 to 253 °C |  |
| C/C(=N\NC(=O)c1cnn(-c2ccc(Cl)cc2)c1C(F)(F)F)c1cc(Br)cc(Br)c1O [Compound 48] | 4.3% | 56% | 19% | 121 to 125 °C |  |
| C=CCc1cccc(/C=N/NC(=O)c2ccc(Br)o2)c1O [Compound 11] | 12.9% | 95.1% | 31% |  |  |
| C/C(=N\NC(=O)c1cnn(-c2ccc(Cl)cc2)c1C(F)(F)F)c1ccccc1O [Compound 35] | 4.3% | 94.8% | 59% | 201 to 202 °C |  |
| O=C(N/N=C/c1cc(Cl)cc(Cl)c1O)c1ccc(Cl)s1 [Compound 26] | 2.7% | 97.5% | 92% | 248 to 250 °C |  |
| C/C(=N\NC(=O)c1csc(C)c1)c1cc(Br)cc(Br)c1O [Compound 51] | 2.2% | 98% | 88% | 237 to 239 °C |  |
| O=C(N/N=C/c1cc(Br)cc(Br)c1O)c1cnn(-c2ccc(Cl)cc2)c1C(F)(F)F [Compound 29] | 7.8% | 57.6% | 47% | 237 to 238 °C |  |
| C/C(=N\NC(=O)c1sc(C)nc1C)c1cc(Br)cc(Br)c1O [Compound 49] | 2.6% | 89.1% | 61% | 221 to 223 °C |  |
| Cc1c(C(=O)N/N=C/c2ccccc2O)[nH]c2c([N+](=O)[O-])cccc12 [Compound 4] | 11.3% | 91.4% | 4% | 296 to 299 °C |  |
| O=C(N/N=C/c1ccccc1O)c1ccc(Cl)s1 [Compound 23] | 0% | 96.3% | 32% | 228 to 230 °C |  |
| O.O.[Cl][Cu][Cl] [CuCl2, CuCl2.2H2O, reference compound] |  |  |  |  | 9.3 ± 1.6% |
| Cc1occc1C(=O)N/N=C/c1cc(Cl)cc(Cl)c1O [Compound 10] | 8.7% | 98.1% | 67% |  |  |
